# From patent publication US6255317A, “Cholesterol biosynthesis inhibitors” (Hanwha Chemical Corporation, priority 1998, dated 2001)
# How the values were obtained:
# sterol 14-reductase = biological target: T1, sterol 14-reductase (Rattus norvegicus, UniProt A0ACM8Q6X4); assay: Sterol 14-reductase assay with rat liver microsomes (substrate 4,4-dimethyl-5α-cholesta-7,14-dien-3β-ol, GLC); type: biochemical, Sprague-Dawley rats; details: read-out: Enzyme Activity (relative in vitro activity for sterol 14-reductase, IC50 class)
# T1 construct: to give a microsome which was used as an enzyme source of sterol 14-reductase; from tissue
# T1 sequence (A0ACM8Q6X4 1-418): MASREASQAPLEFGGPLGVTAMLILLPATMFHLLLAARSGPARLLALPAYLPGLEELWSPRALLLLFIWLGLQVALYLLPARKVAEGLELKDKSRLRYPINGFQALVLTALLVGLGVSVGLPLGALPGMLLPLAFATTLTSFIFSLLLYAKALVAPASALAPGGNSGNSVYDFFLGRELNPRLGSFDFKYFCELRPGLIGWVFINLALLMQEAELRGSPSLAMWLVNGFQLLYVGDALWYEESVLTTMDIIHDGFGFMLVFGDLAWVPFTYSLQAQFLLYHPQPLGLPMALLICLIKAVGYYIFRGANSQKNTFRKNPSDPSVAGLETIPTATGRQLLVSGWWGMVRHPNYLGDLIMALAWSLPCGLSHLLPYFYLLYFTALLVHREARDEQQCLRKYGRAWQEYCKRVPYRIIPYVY
# Method: First, a screening system for sterol 14-reductase was constructed in which 4,4-dimethyl-5α-cholesta-7,14-dien-3β-ol is used as a substrate and then, the effect on the activity of sterol 14-reductase was investigated in the screening system.
# The animals were fasted for 12 hours before excising liver tissues and then sacrificed by decapitation at midnight. An aqueous solution containing 0.25M of sucrose was injected into the hepatic portal vein to remove all the blood within the liver, and then, the liver was excised. The liver was homogenated with two volummes of buffer solution 1 (0.1 M potassium phosphate , 1 mM reduced glutathione, 0.5 mM EDTA, 20% (v/v) glycerol, pH 7.4) by repeating pestles over 10 times and then, centrifuged with 900×g for 5 minutes to give a supernatant. The supernatant was centrifuged with 12,000×g for 20 minutes. The supernatant obtained was ultracentrifuged with 105,000×g for 90 minutes to give a microsome which was used as an enzyme source of sterol 14-reductase. Assay against sterol 14-reductase was carried out as follows: 60 nmol of 4,4-dimethyl-5α-cholesta-7,14-dien-3β-ol and the extract from Corydalis Turtschaninowii Besser dissolved into DMSO were added to an assay mixture (total volume 1.0 ml) containing 2 mg of microsomal protein, 2 mM of NADPH and 25 mg of glucose plus 20 units of glucose oxidase with preincubations under nitrogen at 37° C. for 4 min unless otherwise specified to establish anaerobic condition. Buffer A (0.1M potassium phosphate buffer, pH 7.4, including 1 mM reduced glutathione, 0.5 mM EDTA, and 20% (v/v) glycerol) used for incubation had been equilibrated with nitrogen, and nitrogen was exchanged for air in all sealed reaction flasks prior to the start of incubations. Incubation of the complete mixture was carried out anaerobically in sealed flasks for 10 min at 37° C. unless otherwise indicated. Incubations were terminated by the addition of 1 ml of ethanolic KOH followed by heating under reflux for 10 min. Sterols were extracted four times with 4 ml of petroleum ether, and the solvent was evaporated to dryness under a nitrogen stream. The resulting residue was dissolved in 200-500 μl of n-hexane for quantification by GLC at high sensitive attenuation. The activity of sterol 14-reductase was determined with the amount of the substrate wherein the double bonds of 14-carbon were reduced (for the amount reduced by 1 mg of the microsome protein for 1 minute).
# [1] = system: human liver HepG2 cell line; assay: Cholesterol biosynthesis in cultured human liver cell line HepG2 ([1,2-14C]acetate); type: cell-based; details: compared with AY9944, comparative drug
# Method: Cultured human liver HepG2 cell line was grown on RPMI (Rosewell park Memorial Institute) 1640 culture medium containing 10% […] until 60% of monolayer are formed in a 60 mm culture dish. After replacing the medium with 3 ml of a fresh culture medium containing 10%(v/v) LPDS (Fetal calf lipoprotein-deficient serum), the cells were further grown for 48 hours until 90% of cultivation degree appear. The culture medium was removed and the cell was then washed with PBS. 2 ml of culture medium containing compound no. 8 (final concentration 100 μM) and AY-9944 (final concentration 1 μM) were added thereto. Then, the medium was cultivated at 37° C. for 1 hour under the condition of 95% air/5% carbonic acid gas. AY-9944 which is an inhibitor for sterol 7-reductase was used as a control drug for assuring the present experimental procedure on the inhibition of cholesterol biosynthesis. Thereafter, 3 μCi of [1 ,2-^14 C]acetate (72 mCi/mmol) were added thereto. The cultivation was continued for 2 hours so that the isotope is introduced into the cell and used as a precursor for sterol to be synthesized. Then, the culture medium was completely removed and washed with PBS twice and the cells were collected by scratching. 10 μg of cholesterol, 10 μg of lanosterol and [^3 H]cholesterol (30,000 dpm) were added thereto, and saponification reaction was carried out at 70° C. for an hour by adding 7.5% of methanolic KOH solution. Unsaponified sterol was removed by extracting them three times with 3 ml of petroleum ether and dried with nitrogen purging. The dried samples were redissolved in 200 μl of chloroform. An aliquot of the samples was loaded onto Silicagel 60F thin layer plate and then separated using ethyl acetate/hexane 25/75 (v/v) as the developing solvent. The thin layer film was developed by exposure to Amersham Hyperfilm at -70° C. for 7 days. Cholesterol band were confirmed by comparing the band appeared in the film and that appeared in the iodine-stained thin layer. After scratching the cholesterol band, it was quantified by a liquid scintillation counter.
# Syrian Golden Hamster = assay: In vivo effect on plasma lipids and glucose in Syrian Golden Hamster
# Method: In order to investigate the effect of the compound of formula (1) of the invention, the compound was orally administered into male Syrian Golden Hamsters having weights of 90~110 g and then blood was taken from each animal. Plasma lipids, i.e., total cholesterol, LDL-cholesterol, HDL-cholesterol and triglycerides were analyzed using an automatic analyzer (Automatic analyzer model Hitachi 7150).
# Male Syrian Golden Hamsters weighing 90~110 g distributed from Samyuk Animal Laboratory, Seoul, Korea were bred under the following conditions: They were maintained under reverse light cycle (light cycle: from 6 P.M to 6 A.M; dark cycle: from 6 A.M. to 6 P.M.). The food and water were supplied at 10 A.M. The commercially available standard rodent chows were used. The hamsters were divided into 6 or 7 animals per group. The animals were fasted for 12 hours before administrating the drug. Then, dehydrocoridaline derivatives dissolved in a 0.25% methyl cellulose solution was administered orally for 14 days at the indicated time per a day. After fasting animals for 24 hours from the last administration, blood was extracted using a cardiac puncture and plasma was then isolated. Plasma lipids, i.e., total cholesterol, LDL-cholesterol, HDL-cholesterol and triglyceride values were analyzed using Automatic Analyzer (Hitachi 7150).
# [2] = Acute oral toxicity in SD rats; type: in vivo; details: rat, in vivo, po, rats
# Method: (§1) Meanwhile, the toxicity of the compounds of the present invention was mvestigated as follows: i.e., the compounds were suspended into propylene glycol and then orally administered into each of 5 male and female SD rats at the age of 5-weeks that were fasted for 12 hours. Under the usual breeding conditions, general symptoms, weight change and lethal case of the above rats were monitored for two weeks. At the dose over 2,000 mg/kg of the compound nos. […] Rats were safe against the dose of 700 mg/kg of compound no. 8.
# SD rats = assay: Acute oral toxicity in SD rats; type: in vivo; details: rat, in vivo
# Method: as §1
# [3] = against normal diet control, 6.0 mg/kg/day
# [4] = normal diet + 6.0 mg/kg/day, oral, 14 days, hamster plasma
smiles,measurement,setting,value
"CCOc1cc2c(cc1OCC)C1=C(CC)c3ccc(OCC)c(OCC)c3CN1CC2 [Compound No. 47, 13-Ethyl-2,3,9,10-tetraethoxydihydroprotoberberine]",IC50,sterol 14-reductase,≤ 1000 nM
same,cholesterol biosynthesis in human HepG2 cell line (in words),[1],markedly inhibited
"CCc1c2[n+](cc3c(OC)c(OC)ccc13)CCc1cc3c(cc1-2)OCO3 [Compound No. 6, 13-Ethylberberine]",IC50,sterol 14-reductase,≤ 1000 nM
same,cholesterol biosynthesis in human HepG2 cell line (in words),[1],markedly inhibited
"CCC1=C2c3cc(OC)c(OC)cc3CCN2Cc2c1ccc(OC)c2OC [Compound No. 46, 13-Ethyldihydropalmatine]",IC50,sterol 14-reductase,≤ 1000 nM
same,cholesterol biosynthesis in human HepG2 cell line (in words),[1],markedly inhibited
same,"total cholesterol, LDL-cholesterol, and triglyceride levels (in words)","Syrian Golden Hamster; Syrian Golden Hamster, compared with lovastatin",markedly decreased
same,"Glucose, percent change in parentheses",Syrian Golden Hamster; [3],-12.7%
same,"HDL cholesterol, percent change in parentheses",Syrian Golden Hamster; [3],-6.8%
same,"LDL cholesterol, percent change in parentheses",Syrian Golden Hamster; [3],-50.7%
same,"Total cholesterol, percent change in parentheses",Syrian Golden Hamster; [3],-34.6%
same,"Trigly-ceride, percent change in parentheses",Syrian Golden Hamster; [3],-35.6%
same,Glucose,"Syrian Golden Hamster; normal diet + 6.0 mg/kg/day, oral, 14 days, hamster",158.8 ± 16 mg/dL
same,HDL cholesterol,Syrian Golden Hamster; [4],49.2 ± 2.9 mg/dL
same,LDL cholesterol,Syrian Golden Hamster; [4],20.8 ± 2.3 mg/dL
same,Total cholesterol,Syrian Golden Hamster; [4],82.4 ± 5.4 mg/dL
same,Trigly-ceride,Syrian Golden Hamster; [4],85.2 ± 11.0 mg/dL
same,LD50 at 336 h,[2]; female,> 3000 mg/kg
same,LD50 at 336 h,[2]; male,> 3000 mg/kg
same,"general symptoms, weight change and lethal case over two weeks",SD rats,general symptoms and the body weight change of the animals were normal and the lethal case was not observed
"CCC(=O)CC1c2c(ccc(OC)c2OC)C(CC)=C2c3cc(OC)c(OC)cc3CCN21 (stereo not shown) [Compound No. 38, 8-(butan-2-one-1-yl)-13-ethyldihydropalmatine]",IC50,sterol 14-reductase,≤ 1000 nM
same,cholesterol biosynthesis in human HepG2 cell line (in words),[1],markedly inhibited
